target: T1, human recombinant PDE10A (Homo sapiens, UniProt Q9Y233); assay: Inhibition of PDE10, human recombinant PDE10A ([3H]-cAMP SPA); assay type: biochemical; conditions: Table 9; read-out: hPDE10 IC50
T1 construct: made in house; host or cells: SF21 insect cells (baculovirus)
Experimental: The gene was than inserted into a baculovirus vector, ligated with the baculovirus DNA. The enzyme-protein was expressed in SF21-cells. The enzyme was isolated from these cells by harvesting the cells by a centrifugation at 200 g to collect the cells. The cells were resuspended in 50 mM Tris-HCl/5 mM MgCl2 buffer (pH=7.4) and lysed by a sonication of the cells. The cytosolic PDE10A was obtained by a centrifugation at 48000 g for 1 h in the supernatant and stored at −70° C. PDE10 activity was determined in a one step procedure in microtiterplates. […] Nonspecific activity was tested without the enzyme. The reaction was initiated by addition of the substrate solution and was carried out at 37° C. for 30 minutes. Enzymatic activity was stopped by addition of 25 μl YSi-SPA-beads (Amersham-Pharmacia). One hour later the mixture was measured in a liquid scintillation counter for microtiterplates (Microbeta Trilux). To pipette the incubation mixture a robot Biomek (Fa. Beckman) is used. […] For determination of IC50 values the Hill-plot, 2-parameter-model, was used.

T1 sequence (Q9Y233 1-779 isoform Q9Y233-1): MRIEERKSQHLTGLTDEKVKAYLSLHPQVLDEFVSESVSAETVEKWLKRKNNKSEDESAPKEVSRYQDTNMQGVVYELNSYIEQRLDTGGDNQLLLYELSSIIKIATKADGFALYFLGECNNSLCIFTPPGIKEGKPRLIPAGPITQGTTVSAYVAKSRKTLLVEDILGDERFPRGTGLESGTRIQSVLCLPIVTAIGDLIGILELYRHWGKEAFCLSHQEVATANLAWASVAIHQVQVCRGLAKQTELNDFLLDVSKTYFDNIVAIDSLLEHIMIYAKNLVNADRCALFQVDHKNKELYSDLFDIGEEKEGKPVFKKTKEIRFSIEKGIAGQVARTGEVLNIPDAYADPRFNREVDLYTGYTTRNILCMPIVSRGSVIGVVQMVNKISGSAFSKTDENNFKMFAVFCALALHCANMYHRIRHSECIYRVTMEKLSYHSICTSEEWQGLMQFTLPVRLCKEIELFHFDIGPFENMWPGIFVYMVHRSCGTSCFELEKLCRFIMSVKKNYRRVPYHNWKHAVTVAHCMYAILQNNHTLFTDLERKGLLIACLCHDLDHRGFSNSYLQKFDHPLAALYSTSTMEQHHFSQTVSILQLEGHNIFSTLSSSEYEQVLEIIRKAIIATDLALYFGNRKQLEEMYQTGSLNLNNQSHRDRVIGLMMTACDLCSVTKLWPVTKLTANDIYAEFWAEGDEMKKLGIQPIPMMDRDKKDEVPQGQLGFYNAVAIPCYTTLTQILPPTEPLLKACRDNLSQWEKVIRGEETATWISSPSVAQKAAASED

Which IC50 does the source give for `Cc1ccc(Cl)cc1-c1nc(C)c2c(C)nc3ccc(OCC4CC4)nc3n12` [Example 134, 9-(5-chloro-2-methylphenyl)-2-(cyclopropylmethoxy)-6,7-dimethylimidazo[1,5-a]pyrido[3,2-e]pyrazine] here?
The IC50 was 10 to 100 nM.

With `Cc1cc(F)ccc1-c1nc(C)c2c(C)nc3ccc(OCC4CC4)nc3n12` [Example 135, 2-(cyclopropylmethoxy)-9-(4-fluoro-2-methylphenyl)-6,7-dimethylimidazo[1,5-a]pyrido[3,2-e]pyrazine] as the molecule, how does the IC50 read?
The IC50 was 10 to 100 nM.

With `Cc1c(F)cccc1-c1nc(C)c2c(C)nc3ccc(OCC4CC4)nc3n12` [Example 136, 2-(cyclopropylmethoxy)-9-(3-fluoro-2-methylphenyl)-6,7-dimethylimidazo[1,5-a]pyrido[3,2-e]pyrazine] as the molecule, how does the IC50 read?
Its IC50 is less than 10 nM.

Which IC50 does the source give for `Cc1nc(-c2ccc(Cl)cc2C(F)(F)F)n2c1c(C)nc1ccc(OCC3CC3)nc12` [Example 137, 9-[4-chloro-2-(trifluoromethyl)phenyl]-2-(cyclopropylmethoxy)-6,7-dimethylimidazo[1,5-a]pyrido[3,2-e]pyrazine] here?
The IC50 was 10 to 100 nM.

How did the IC50 turn out when `Cc1nc(-c2ccc(F)cc2Cl)n2c1c(C)nc1ccc(OCC3CC3)nc12` [Example 138, 9-(2-chloro-4-fluorophenyl)-2-(cyclopropylmethoxy)-6,7-dimethylimidazo[1,5-a]pyrido[3,2-e]pyrazine] was run?
Its IC50 is less than 10 nM.

Which IC50 does the source give for `COc1ccc(-c2nc(C)c3c(C)nc4ccc(OCC5CC5)nc4n23)cn1` [Example 139, 2-(cyclopropylmethoxy)-9-(6-methoxypyridin-3-yl)-6,7-dimethylimidazo[1,5-a]pyrido[3,2-e]pyrazine] here?
Its IC50 is greater than 100 nM.

With `Cc1ccncc1-c1nc(C)c2c(C)nc3ccc(OCC4CC4)nc3n12` [Example 140, 2-(cyclopropylmethoxy)-6,7-dimethyl-9-(4-methylpyridin-3-yl)imidazo[1,5-a]pyrido[3,2-e]pyrazine] as the molecule, how does the IC50 read?
Its IC50 is 10 to 100 nM.

For `Cc1nc(F)ccc1-c1nc(C)c2c(C)nc3ccc(OCC4CC4)nc3n12` [Example 141, 2-(cyclopropylmethoxy)-9-(6-fluoro-2-methylpyridin-3-yl)-6,7-dimethylimidazo[1,5-a]pyrido[3,2-e]pyrazine], which IC50 is on record?
Its IC50 is less than 10 nM.

Which IC50 does the source give for `Cc1nc(-c2ccc(C(N)=O)cc2)n2c1c(C)nc1ccc(OCC3CC3)nc12` [Example 142, 4-[2-(cyclopropylmethoxy)-6,7-dimethylimidazo[1,5-a]pyrido[3,2-e]pyrazin-9-yl]benzamide] here?
The IC50 was less than 10 nM.

`Cc1nc(-c2cccc(C(N)=O)c2)n2c1c(C)nc1ccc(OCC3CC3)nc12` [Example 143, 3-[2-(cyclopropylmethoxy)-6,7-dimethylimidazo[1,5-a]pyrido[3,2-e]pyrazin-9-yl]benzamide] was tested. Which IC50 did it give?
The IC50 was less than 10 nM.

With `Cc1nc(-c2ccc(F)c(C(N)=O)c2)n2c1c(C)nc1ccc(OCC3CC3)nc12` [Example 144, 5-(2-(cyclopropylmethoxy)-6,7-dimethylimidazo[1,5-a]pyrido[3,2-e]pyrazin-9-yl)-2-fluorobenzamide] as the molecule, how does the IC50 read?
The IC50 was less than 10 nM.

With `Cc1nc(-c2cc(F)cc(C(N)=O)c2)n2c1c(C)nc1ccc(OCC3CC3)nc12` [Example 145, 3-[2-(cyclopropylmethoxy)-6,7-dimethylimidazo[1,5-a]pyrido[3,2-e]pyrazin-9-yl]-5-fluorobenzamide] as the molecule, how does the IC50 read?
Its IC50 is less than 10 nM.

How did the IC50 turn out when `Cc1ccc(C(=O)O)cc1-c1nc(C)c2c(C)nc3ccc(OCC4CC4)nc3n12` [Example 146, 3-[2-(cyclopropylmethoxy)-6,7-dimethylimidazo[1,5-a]pyrido[3,2-e]pyrazin-9-yl]-4-methylbenzoic acid] was run?
Its IC50 is greater than 100 nM.

`Cc1cc(C(=O)O)ccc1-c1nc(C)c2c(C)nc3ccc(OCC4CC4)nc3n12` [Example 147, 4-[2-(cyclopropylmethoxy)-6,7-dimethylimidazo[1,5-a]pyrido[3,2-e]pyrazin-9-yl]-3-methylbenzoic acid] was tested. Which IC50 did it give?
Its IC50 is greater than 100 nM.

With `Cc1nc(-c2cccc(S(N)(=O)=O)c2)n2c1c(C)nc1ccc(OCC3CC3)nc12` [Example 148, 3-[2-(cyclopropylmethoxy)-6,7-dimethylimidazo[1,5-a]pyrido[3,2-e]pyrazin-9-yl]benzenesulfonamide] as the molecule, how does the IC50 read?
The IC50 was greater than 100 nM.

With `Cc1ccc(C(N)=O)cc1-c1nc(C)c2c(C)nc3ccc(OCC4CC4)nc3n12` [Example 149, 3-[2-(cyclopropylmethoxy)-6,7-dimethylimidazo[1,5-a]pyrido[3,2-e]pyrazin-9-yl]-4-methylbenzamide] as the molecule, how does the IC50 read?
The IC50 was less than 10 nM.

Which IC50 does the source give for `Cc1cc(C(N)=O)ccc1-c1nc(C)c2c(C)nc3ccc(OCC4CC4)nc3n12` [Example 150, 4-[2-(cyclopropylmethoxy)-6,7-dimethylimidazo[1,5-a]pyrido[3,2-e]pyrazin-9-yl]-3-methylbenzamide] here?
Its IC50 is less than 10 nM.

For `Cc1nc(-c2cc(C(N)=O)ccc2F)n2c1c(C)nc1ccc(OCC3CC3)nc12` [Example 151, 3-[2-(cyclopropylmethoxy)-6,7-dimethylimidazo[1,5-a]pyrido[3,2-e]pyrazin-9-yl]-4-fluorobenzamide], which IC50 is on record?
The IC50 was less than 10 nM.

With `Cc1ccccc1-c1nc(C)c2c(C)nc3ccc(=O)[nH]c3n12` [Example 152, 6,7-Dimethyl-9-o-tolylimidazo[1,5-a]pyrido[3,2-e]pyrazin-2(1H)-one] as the molecule, how does the IC50 read?
Its IC50 is 10 to 100 nM.

`Cc1ccccc1-c1nc(C)c2c(C)nc3ccc(OCC(F)F)nc3n12` [Example 153, 2-(2,2-difluoroethoxy)-6,7-dimethyl-9-(2-methylphenyl)imidazo[1,5-a]pyrido[3,2-e]pyrazine] was tested. Which IC50 did it give?
Its IC50 is less than 10 nM.

How did the IC50 turn out when `Cc1ccccc1-c1nc(C)c2c(C)nc3ccc(OCCF)nc3n12` [Example 154, 2-(2-fluoroethoxy)-6,7-dimethyl-9-(2-methylphenyl)imidazo[1,5-a]pyrido[3,2-e]pyrazine] was run?
The IC50 was less than 10 nM.

For `Cc1ccccc1-c1nc(C)c2c(C)nc3ccc(OCC(F)(F)F)nc3n12` [Example 155], which IC50 is on record?
Its IC50 is 10 to 100 nM.

Which IC50 does the source give for `Cc1ccccc1-c1nc(C)c2c(C)nc3ccc(OCc4ccc(F)cc4)nc3n12` [Example 157, 2-[(4-fluorobenzyl)oxy]-6,7-dimethyl-9-(2-methylphenyl)imidazo[1,5-a]pyrido[3,2-e]pyrazine] here?
The IC50 was 10 to 100 nM.

For `Cc1ccccc1-c1nc(C)c2c(C)nc3ccc(OCc4ccncc4)nc3n12` [Example 158, 6,7-dimethyl-9-(2-methylphenyl)-2-(pyridin-4-ylmethoxy)imidazo[1,5-a]pyrido[3,2-e]pyrazine], which IC50 is on record?
The IC50 was less than 10 nM.

How did the IC50 turn out when `Cc1ccncc1-c1nc(C)c2c(C)nc3ccc(=O)[nH]c3n12` [Example 159, 6,7-Dimethyl-9-(4-methylpyridin-3-yl)imidazo[1,5-a]pyrido[3,2-e]pyrazin-2(H)-one] was run?
Its IC50 is greater than 100 nM.

`COc1ccc2nc(C)c3c(C)nc(-c4ccncc4OC)n3c2n1` [Example 161, 2-Methoxy-9-(3-methoxypyridin-4-yl)-6,7-dimethylimidazo[1,5-a]pyrido[3,2-e]pyrazine] was tested. Which IC50 did it give?
The IC50 was 10 to 100 nM.

`COc1ccc2nc(C#N)c3c(C)nc(-c4ccccc4C)n3c2n1` [Example 165, 2-methoxy-7-methyl-9-(2-methylphenyl)imidazo[1,5-a]pyrido[3,2-e]pyrazine-6-carbonitrile] was tested. Which IC50 did it give?
The IC50 was 10 to 100 nM.

For `COc1ccc2nc(C#N)c3c(C)nc(-c4cc(C(N)=O)ccc4F)n3c2n1` [Example 166, 3-(6-cyano-2-methoxy-7-methylimidazo[1,5-a]pyrido[3,2-e]pyrazin-9-yl)-4-fluorobenzamide], which IC50 is on record?
Its IC50 is less than 10 nM.

With `COc1ccc2nc(C#N)c3c(C)nc(-c4cccc(C(N)=O)c4)n3c2n1` [Example 167, 3-(6-cyano-2-methoxy-7-methylimidazo[1,5-a]pyrido[3,2-e]pyrazin-9-yl)benzamide] as the molecule, how does the IC50 read?
The IC50 was 10 to 100 nM.

`COc1ccc2nc(C#N)c3c(C)nc(-c4ccc(F)c(C(N)=O)c4)n3c2n1` [Example 168, 5-(6-cyano-2-methoxy-7-methylimidazo[1,5-a]pyrido[3,2-e]pyrazin-9-yl)-2-fluorobenzamide] was tested. Which IC50 did it give?
Its IC50 is less than 10 nM.

For `COc1ccc2nc(C#N)c3c(C)nc(-c4cnccc4C)n3c2n1` [Example 169, 2-methoxy-7-methyl-9-(4-methylpyridin-3-yl)imidazo[1,5-a]pyrido[3,2-e]pyrazine-6-carbonitrile], which IC50 is on record?
The IC50 was greater than 100 nM.

For `COc1ccc2nc(C#N)c3c(C)nc(-c4ccncc4)n3c2n1` [Example 170, 2-methoxy-7-methyl-9-pyridin-4-ylimidazo[1,5-a]pyrido[3,2-e]pyrazine-6-carbonitrile], which IC50 is on record?
The IC50 was greater than 100 nM.

With `COc1ccc2nc(C#N)c3c(C)nc(-c4cccnc4)n3c2n1` [Example 171, 2-methoxy-7-methyl-9-pyridin-3-ylimidazo[1,5-a]pyrido[3,2-e]pyrazine-6-carbonitrile] as the molecule, how does the IC50 read?
The IC50 was 10 to 100 nM.

With `COc1ccc2nc(C#N)c3c(C)nc(-c4ccc(F)nc4C)n3c2n1` [Example 172, 9-(6-fluoro-2-methylpyridin-3-yl)-2-methoxy-7-methylimidazo[1,5-a]pyrido[3,2-e]pyrazine-6-carbonitrile] as the molecule, how does the IC50 read?
The IC50 was greater than 100 nM.

Which IC50 does the source give for `COc1ccc2nc(C)c3c(C)nc(-c4ccnc(F)c4)n3c2n1` [Example 174, 9-(2-fluoropyridin-4-yl)-2-methoxy-6,7-dimethylimidazo[1,5-a]pyrido[3,2-e]pyrazine] here?
Its IC50 is 10 to 100 nM.

For `COc1ccc2nc(C)c3c(C)nc(-c4cccnc4F)n3c2n1` [Example 175, 9-(2-fluoropyridin-3-yl)-2-methoxy-6,7-dimethylimidazo[1,5-a]pyrido[3,2-e]pyrazine], which IC50 is on record?
Its IC50 is less than 10 nM.

`COc1ccc2nc(C)c3c(C)nc(-c4ccc5[nH]ccc5c4)n3c2n1` [Example 177, 9-(1H-indol-5-yl)-2-methoxy-6,7-dimethylimidazo[1,5-a]pyrido[3,2-e]pyrazine] was tested. Which IC50 did it give?
Its IC50 is less than 10 nM.

Source: patent US20090143361A1, “Pyrido[3,2-E]Pyrazines, Process For Preparing The Same, And Their Use As Inhibitors Of Phosphodiesterase 10” (ELBION GMBH, priority 2007, published 2009)
